From US6274715A, “Tricyclic erythromycin derivatives” (priority 1997, dated 2001)
≈ marks a conversion by molar mass, not a printed value.

Assays:
Type in all cases: cell-based
[1] = tested on: ACINETOBACTER CALCOACETICUS CMX 669; assay: In vitro antibacterial activity, MIC, BHI agar dilution; details: A. calcoaceticus CMX 669, unit assumed
ESCHERICHIA COLI JUHL = details: E. coli JUHL; BHI agar; unit assumed
PSEUDOMONAS CEPACIA 296I = assay: In vitro antibacterial activity, MIC, BHI agar dilution; details: P. cepacia 296I, unit assumed
[2] = tested on: STREPTOCOCCUS PYOGENES PIU 2548; assay: as above; details: S. pyogenes PIU 2548, unit assumed
[3] = tested on: PSEUDOMONAS AERUGINOSA DPHD-2862; assay: as above; details: P. aeruginosa DPHD-2862, unit assumed
[4] = tested on: STAPHYLOCOCCUS AUREUS 1775; assay: as above; details: S. aureus 1775, unit assumed
CANDIDA ALBICANS CCH 442 = assay: as above; details: C. albicans CCH 442, unit assumed
[5] = tested on: STAPHYLOCOCCUS EPIDERMIDIS 3519; details: S. epidermidis 3519; BHI agar; unit assumed
[6] = tested on: MYCOBACTERIUM SMEGMATIS ATCC 114; assay: In vitro antibacterial activity, MIC, BHI agar dilution; details: M. smegmatis ATCC 114, unit assumed
[7] = tested on: PSEUDOMONAS AERUGINOSA DPHD-5263; assay: as above; details: P. aeruginosa DPHD-5263, unit assumed
[8] = tested on: STAPHYLOCOCCUS AUREUS A5177; assay: as above; details: S. aureus A5177, unit assumed
M[…] ATCC 4698 = assay: as above; details: M. luteus ATCC 4698, unit assumed
How it was run: (§1)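 BHI agar dilution, 12 plates; inoculum 1:100 (1:10 slow-growing strains), Steers replicator; 35-37° C, 20-24 h. MIC = lowest conc. with no growth/slight haze/sparse colonies vs growth control, visual read. Erythromycin A reference plate.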

EN[…] ATCC 8043 = assay: as above; details: E. faecium ATCC 8043, unit assumed
How it was run: as §1

STR[…] 508 = assay: as above; details: S. agalactiae CMX 508, unit assumed
How it was run: as §1

M[…] ATCC 9341 = assay: as above; details: M. luteus ATCC 9341, unit assumed
How it was run: as §1

ESCHERICHIA COLI DC-2 = assay: as above; details: E. coli DC-2, unit assumed
[9] = tested on: PROVIDENCIA STUARTII CMX 640; details: P. stuartii CMX 640; BHI agar; unit assumed
[10] = tested on: PSEUDOMONAS AERUGINOSA K799/WT; assay: In vitro antibacterial activity, MIC, BHI agar dilution; details: P. aeruginosa K799/WT, unit assumed
[11] = tested on: STREPTOCOCCUS PYOGENES 930; assay: as above; details: S. pyogenes 930, unit assumed
[12] = tested on: STAPHYLOCOCCUS AUREUS ATCC 6538P; assay: as above; details: S. aureus ATCC 6538P, 35-37° C., 20 to 24 hours, unit assumed
[13] = tested on: STAPHYLOCOCCUS AUREUS A-5278; assay: as above; details: S. aureus A-5278, unit assumed
[14] = tested on: PSEUDOMONAS AERUGINOSA 5007; assay: as above; details: P. aeruginosa 5007, unit assumed
[15] = tested on: PSEUDOMONAS AERUGINOSA K799/61; assay: as above; details: P. aeruginosa K799/61, unit assumed
[16] = tested on: PSEUDOMONAS AERUGINOSA BMH10; assay: as above; details: P. aeruginosa BMH10, unit assumed
[17] = tested on: ENTEROBACTER AEROGENES ATCC 13048; assay: as above; details: E. aerogenes ATCC 13048, unit assumed
ESCHERICHIA COLI H560 = assay: as above; details: E. coli H560, unit assumed
[18] = tested on: STAPHYLOCOCCUS AUREUS NCTC10649M; assay: as above; details: S. aureus NCTC10649M, unit assumed
ESCHERICHIA COLI SS = assay: as above; details: E. coli SS, unit assumed
[19] = tested on: STAPHYLOCOCCUS AUREUS CMX 642A; assay: as above; details: S. aureus CMX 642A, unit assumed
[20] = tested on: STAPHYLOCOCCUS AUREUS CMX 553; assay: as above; details: S. aureus CMX 553, unit assumed
[21] = tested on: STREPTOCOCCUS BOVIS A-5169; assay: as above; details: S. bovis A-5169, unit assumed
[22] = tested on: STREPTOCOCCUS PYOGENES EES61; assay: as above; details: S. pyogenes EES61, unit assumed
ESCHERICHIA COLI KNK 437 = details: E. coli KNK 437; BHI agar; unit assumed
[23] = tested on: KLEBSIELLA PNEUMONIAE ATCC 8045; assay: In vitro antibacterial activity, MIC, BHI agar dilution; details: K. pneumoniae ATCC 8045, unit assumed

| SMILES | MIC [1] [µg/mL] | MIC (ESCHERICHIA COLI JUHL) [µg/mL] | MIC (PSEUDOMONAS CEPACIA 296I) [µg/mL] | MIC [3] [µg/mL] | MIC [4] [µg/mL] | MIC (CANDIDA ALBICANS CCH 442) [µg/mL] | MIC [5] [µg/mL] | MIC [6] [µg/mL] | MIC [7] [µg/mL] | MIC [8] [µg/mL] | MIC (M[…] ATCC 4698) [µg/mL] | MIC (EN[…] ATCC 8043) [µg/mL] | MIC (STR[…] 508) [µg/mL] | MIC (M[…] ATCC 9341) [µg/mL] | MIC (ESCHERICHIA COLI DC-2) [µg/mL] | MIC [9] [µg/mL] | MIC [10] [µg/mL] | MIC [12] [µg/mL] | MIC [13] [µg/mL] | MIC [14] [µg/mL] | further results |
| --- | --- | --- | --- | --- | --- | --- | --- | --- | --- | --- | --- | --- | --- | --- | --- | --- | --- | --- | --- | --- | --- |
| CC[C@H]1OC(=O)[C@H](C)C(=O)[C@H](C)[C@@H](O[C@@H]2O[C@H](C)C[C@H](N(C)C)[C@H]2O)[C@](C)(OC)C[C@@H](C)C2=N[C@H](COCc3cccnc3)CN3C(=O)O[C@@]1(C)[C@H]3[C@H]2C [Example 82] | > 100 | > 100 | > 100 | > 100 | > 100 | > 100 | 0.39 (≈ 0.514 µM) | 3.1 (≈ 4.08 µM) | > 100 | 0.39 (≈ 0.514 µM) | 0.39 (≈ 0.514 µM) | 0.05 (≈ 0.0659 µM) | 0.05 (≈ 0.0659 µM) | 0.05 (≈ 0.0659 µM) | > 100 | > 100 | > 100 | 0.39 (≈ 0.514 µM) | > 100 | > 100 | MIC [2]: 0.39 µg/mL (≈ 0.514 µM); MIC [11]: > 100 µg/mL; MIC [15]: 3.1 µg/mL (≈ 4.08 µM); MIC [16]: > 100 µg/mL; MIC [17]: > 100 µg/mL; MIC (ESCHERICHIA COLI H560): > 100 µg/mL; MIC [18]: 0.39 µg/mL (≈ 0.514 µM); MIC (ESCHERICHIA COLI SS): 0.78 µg/mL (≈ 1.03 µM); MIC [19]: 0.39 µg/mL (≈ 0.514 µM); MIC [20]: 0.39 µg/mL (≈ 0.514 µM); MIC [21]: 0.05 µg/mL (≈ 0.0659 µM); MIC [22]: 0.05 µg/mL (≈ 0.0659 µM); MIC (ESCHERICHIA COLI KNK 437): > 100 µg/mL |
| CC[C@H]1OC(=O)[C@H](C)C(=O)[C@H](C)[C@@H](O[C@@H]2O[C@H](C)C[C@H](N(C)C)[C@H]2O)[C@](C)(OC)C[C@@H](C)C2=N[C@H](COCc3ccccc3)CN3C(=O)O[C@@]1(C)[C@H]3[C@H]2C [Example 88] | 100 (≈ 132 µM) | > 100 | 100 (≈ 132 µM) | > 100 | > 100 | > 100 | 0.39 (≈ 0.515 µM) | 0.39 (≈ 0.515 µM) | > 100 | 0.2 (≈ 0.264 µM) | 0.2 (≈ 0.264 µM) | 0.2 (≈ 0.264 µM) | 0.05 (≈ 0.066 µM) | 0.1 (≈ 0.132 µM) | > 100 | > 100 | > 100 | 0.39 (≈ 0.515 µM) | > 100 | > 100 | MIC [15]: 6.2 µg/mL (≈ 8.18 µM); MIC [16]: > 100 µg/mL; MIC [17]: > 100 µg/mL; MIC (ESCHERICHIA COLI H560): 100 µg/mL (≈ 132 µM); MIC [18]: 0.2 µg/mL (≈ 0.264 µM); MIC (ESCHERICHIA COLI SS): 1.56 µg/mL (≈ 2.06 µM); MIC [19]: 0.39 µg/mL (≈ 0.515 µM); MIC [23]: > 100 µg/mL; MIC [20]: 0.2 µg/mL (≈ 0.264 µM); MIC [21]: 0.02 µg/mL (≈ 0.0264 µM); MIC [22]: ≤ 0.005 µg/mL; MIC (ESCHERICHIA COLI KNK 437): > 100 µg/mL |
| C#CCN1CC2N=C3[C@H](C)C[C@@](C)(OC)[C@H](O[C@@H]4O[C@H](C)C[C@H](N(C)C)[C@H]4O)[C@@H](C)C(=O)[C@@H](C)C(=O)O[C@H](CC)[C@@]4(C)OC(=O)N(C2C1)[C@@H]4[C@H]3C (stereo partly shown) [Example 117] | > 100 | > 100 | > 100 | > 100 | > 100 | > 100 | 1.56 (≈ 2.18 µM) | 3.1 (≈ 4.32 µM) | > 100 | 0.78 (≈ 1.09 µM) | 0.39 (≈ 0.544 µM) | 0.2 (≈ 0.279 µM) | 0.05 (≈ 0.0697 µM) | 0.2 (≈ 0.279 µM) | > 100 | > 100 | > 100 | 0.78 (≈ 1.09 µM) | > 100 | > 100 | MIC [2]: 0.78 µg/mL (≈ 1.09 µM); MIC [11]: > 100 µg/mL; MIC [15]: 3.1 µg/mL (≈ 4.32 µM); MIC [16]: > 100 µg/mL; MIC [17]: > 100 µg/mL; MIC (ESCHERICHIA COLI H560): 50 µg/mL (≈ 69.7 µM); MIC [18]: 0.78 µg/mL (≈ 1.09 µM); MIC [19]: 0.78 µg/mL (≈ 1.09 µM); MIC [23]: > 100 µg/mL; MIC [20]: 0.78 µg/mL (≈ 1.09 µM); MIC [21]: 0.05 µg/mL (≈ 0.0697 µM); MIC (ESCHERICHIA COLI KNK 437): > 100 µg/mL |
